As a reminder, the pIC50 is the IC50 on a negative log10 scale, so that one unit is a factor of ten. A word on the IC50: it is the midpoint of a concentration-inhibition curve.

pIC50: −log10 of the molar value. Like-named read-outs stand apart in the source and are kept apart here.

The text below walks through data of patent US12029739B2, “SHP2 inhibitor and use thereof” (KANAPH THERAPEUTICS INC., priority 2021, dated 2024).

The subject of assay [1] is phospho-ERK in MIA PaCa2 or H358 cells. Nature of the assay: Phospho-ERK assay (AlphaLisa). The class given is cell-based. Conditions: for pIC50: MIA PaCa2 or H358 cells, compound incubated 1.5 hours, read-out: IC50 (p-ERK); for IC50: read-out: IC50 (p-ERK, nM).
In assay [2] the target is T1, SHP2 (full length) (Homo sapiens, UniProt Q06124).
T1 construct: SHP2 (full length, diluted to 100 pM final concentration in reaction buffer, BPS bioscience, US); purchased BPS bioscience, US
T1 sequence (Q06124 1-593): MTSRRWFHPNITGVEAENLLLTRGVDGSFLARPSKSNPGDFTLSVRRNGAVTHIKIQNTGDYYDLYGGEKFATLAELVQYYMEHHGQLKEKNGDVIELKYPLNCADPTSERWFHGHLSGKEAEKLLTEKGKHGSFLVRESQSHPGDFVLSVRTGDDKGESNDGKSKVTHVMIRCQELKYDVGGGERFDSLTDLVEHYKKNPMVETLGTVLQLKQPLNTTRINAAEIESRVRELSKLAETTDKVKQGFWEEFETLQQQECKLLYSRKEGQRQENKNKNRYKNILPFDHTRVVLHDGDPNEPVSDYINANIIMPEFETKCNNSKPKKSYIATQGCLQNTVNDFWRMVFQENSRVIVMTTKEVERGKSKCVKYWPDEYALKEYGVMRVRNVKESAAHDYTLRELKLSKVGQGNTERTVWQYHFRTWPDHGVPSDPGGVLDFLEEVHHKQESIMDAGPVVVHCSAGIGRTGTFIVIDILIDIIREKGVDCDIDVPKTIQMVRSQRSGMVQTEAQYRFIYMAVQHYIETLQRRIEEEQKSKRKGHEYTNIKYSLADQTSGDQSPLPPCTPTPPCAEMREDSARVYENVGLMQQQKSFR
Description: Phosphatase assay (PTPase assay) with DiFMUP substrate. The class given is biochemical. To be noted: SHP2 activated with SHP2 activating peptide, DiFMUP 80 μM, 2 hours, fluorescence; for pIC50: read-out: IC50 (PTPase aS say).

Regarding `C[C@@H]1OCC2(CCN(c3cnc(Sc4ccc5ncn(Cc6ccc7cc[nH]c7n6)c(=O)c5c4Cl)cn3)CC2)[C@@H]1N` [Example 42, 3-((1H-pyrrolo[2,3-b]pyridin-6-yl)methyl)-6-((5-((3S,4S)-4-amino-3-methyl-2-oxa-8-azaspiro[4.5]decan-8-yl)pyrazin-2-yl)thio)-5-chloroquinazolin-4(3H)-one], the pIC50 in assay [1] (1.5 h) was more than 7.35; in assay [2] it was more than 8.52.

Turning to `C[C@@H]1OCC2(CCN(c3cnc(Sc4ccc5c(c4Cl)C(=O)N(Cc4ccccc4)C5)cn3)CC2)[C@@H]1N` [Example 133, 6-((5-((3S,4S)-4-amino-3-methyl-2-oxa-8-azaspiro[4,5]decan-8-yl)-pyrazin-2-yl)thio)-2-benzyl-7-chloroisoindolin-1-one], the values for the pIC50 in assay [1] (1.5 h) and in assay [2] were 5.82 to 7.35 and 7.00 to 8.52, respectively.

With `C[C@@H]1OCC2(CCN(c3cnc(Sc4ccc5ncn(Cc6cccc(C(F)(F)F)c6)c(=O)c5c4Cl)cn3)CC2)[C@@H]1N` [Example 34], the pIC50 in assay [1] (1.5 h) is 5.82 to 7.35; in assay [2], 7.00 to 8.52.

As to `C[C@@H]1OCC2(CCN(c3cnc(Sc4ccc5ncn(CC(N)=O)c(=O)c5c4Cl)cn3)CC2)[C@@H]1N` [Example 97, 2-(6-((5-((3S,4S)-4-amino-3-methyl-2-oxa-8-azaspiro[4.5]decan-8-yl)pyrazin-2-yl)thio)-5-chloro-4-oxoquinazolin-3(4H)-yl)acetamide], the pIC50 in assay [1] (1.5 h) was more than 7.35; in assay [2], more than 8.52.

As for `CC1(CN)CCN(c2cnc(Sc3ccc4ncn(Cc5ccc(S(=O)(=O)F)cc5)c(=O)c4c3Cl)cn2)CC1` [Example 17, 4-((6-((5-(4-(aminomethyl)-4-methylpiperidin-1-yl)pyrazin-2-yl)thio)-5-chloro-4-oxoquinazolin-3(4H)-yl)methyl)benzenesulfonyl fluoride], the IC50 is 45 to 1500 nM in assay [1] (1.5 h) and 3 to 100 nM in assay [2] (IC50 (PTPase aS say, nM)).

With `C[C@@H]1OCC2(CCN(c3cnc(Sc4ccc5ncn(Cc6ccccc6F)c(=O)c5c4Cl)cn3)CC2)[C@@H]1N` [Example 43, 6-((5-((3S,4S)-4-amino-3-methyl-2-oxa-8-azaspiro[4.5]decan-8-yl)pyrazin-2-yl)thio)-5-chloro-3-(2-fluorobenzyl)quinazolin-4(3H)-one], the results for the pIC50 in assay [1] (1.5 h) and in assay [2] were more than 7.35 and more than 8.52, respectively.

In the case of `CC1(N)CCN(c2cnc(Sc3ccc4ncn(-c5ccccc5)c(=O)c4c3Cl)cn2)CC1` [Example 28, 6-((5-(4-amino-4-methylpiperidin-1-yl)pyrazin-2-yl)thio)-5-chloro-3-phenylquinazolin-4(3H)-one], the pIC50 in assay [1] (1.5 h) was 5.82 to 7.35; in assay [2], 7.00 to 8.52.

For the compound `C[C@@H]1OCC2(CCN(c3cnc(Sc4ccc5ncn(CC(=O)c6cccnc6)c(=O)c5c4Cl)cn3)CC2)[C@@H]1N` [Example 90, 6-((5-((3S,4S)-4-amino-3-methyl-2-oxa-8-azaspiro[4.5]decan-8-yl)pyrazin-2-yl)thio)-5-chloro-3-(2-oxo-2-(pyridin-3-yl]ethyl)quinazolin-4(3H)-one], the negative-log IC50 (pIC50) was more than 7.35 in assay [1] (1.5 h) and more than 8.52 in assay [2].

As for `Cn1c(N2CCN(C[C@@H](N)Cc3ccncc3)CC2)nc(N)c(Sc2cccc(Cl)c2Cl)c1=O` [Example 187, (S)-6-amino-2-(4-(2-amino-3-(pyridin-4-yl)propyl)piperazin-1-yl)-5-((2,3-dichlorophenyl)thio)-3-methylpyrimidin-4(3H)-one], in assay [2], the pIC50 was less than 7.00.

`C[C@@H]1OCC2(CCN(c3cnc(Sc4ccnc(C(=O)NCc5ccccc5)c4Cl)cn3)CC2)[C@@H]1N` [Example 86, 4-((5-((3S,4S)-4-amino-3-methyl-2-oxa-8-azaspiro[4.5]decan-8-yl)pyrazin-2-yl)thio)-N-benzyl-3-chloropicolinamide]: the pIC50 in assay [2] was 7.00 to 8.52.

`Cc1nc2ccc(Sc3cnc(N4CCC(C)(CN)CC4)cn3)c(Cl)c2c(=O)n1Cc1cccc(S(=O)(=O)F)c1` [Example 21, 3-((6-((5-(4-(aminomethyl)-4-methylpiperidin-1-yl)pyrazin-2-yl)thio)-5-chloro-2methyl-4-oxoquinazolin-3(4H)-yl)methyl)benzenesulfonyl fluoride]: the negative-log IC50 (pIC50) in assay [1] was 5.82 to 7.35.

Turning to `COCCn1cnc2ccc(Sc3ncc(N4CCC5(CC4)Cc4ncsc4[C@H]5N)nc3N)c(Cl)c2c1=O` [Example 164, (S)-6-((3-amino-5-(6-amino-4,6-dihydrospiro[cyclopenta[d]thiazole-5,4′-piperidin]-1′-yl)pyrazin-2-yl)thio)-5-chloro-3-(2-methoxyethyl)quinazolin-4(31-1)-one], the negative-log IC50 (pIC50) in assay [2] was more than 8.52.

With `C[C@@H]1OCC2(CCN(c3cnc(Sc4ccc5ncn(CCO)c(=O)c5c4Cl)cn3)CC2)[C@@H]1N` [Example 58, 6-((5-((3S,4S)-4-amino-3-methyl-2-oxa-8-azaspiro[4.5]decan-8-yl)pyrazin-2-yl)thio)-5-chloro-3-(2-hydroxyethyl)quinazolin-4(3H)-one], the pIC50 in assay [2] is 7.00 to 8.52.

`C[C@@H]1OCC2(CCN(c3cnc(Sc4ccc5ncn(CC6CCNC6)c(=O)c5c4Cl)cn3)CC2)[C@@H]1N` (stereo partly drawn) [Example 55, 6-((5-((3S,4S)-4-amino-3-methyl-2-oxa-8-azaspiro[4.5]decan-8-yl)pyrazin-2-yl)thio)-5-chloro-3-(pyrrolidin-3-ylmethyl)quinazolin-4(3H)-one]: the negative-log IC50 (pIC50) in assay [2] is 7.00 to 8.52.

For the compound `COCCn1cnc2ccc(Sc3cnc(N4CCC5(CC4)CO[C@@H](C)[C@H]5N)nn3)c(Cl)c2c1=O` [Example 183, 6-((3-((3S,4S)-4-amino-3-methyl-2-oxa-8-azaspiro[4.5]decan-8-yl)-1,2,4-triazin-6-yl)thio)-5-chloro-3-(2-methoxyethyl)quinazolin-4(3H)-one], the negative-log IC50 (pIC50) in assay [1] is less than 5.82.

`CC1(N)CCN(c2cnc(-c3cccc(Cl)c3Cl)c(N)n2)CC1` [SHP099, 6-(4-amino-4-methylpiperidin-1-yl)-3-(2,3-dichlorophenyl)pyrazin-2-amine, reference compound]: in assay [1] (1.5 h), the IC50 lay within 45 to 1500 nM.

Regarding `Cn1c(N2CCN(CCN)CC2)nc(N)c(Sc2ccnc(N)c2Cl)c1=O` [Example 192], the pIC50 in assay [2] is less than 7.00.

Consider `N[C@H]1c2cccnc2CC12CCN(c1cnc(Sc3ccc4ncn(Cc5ccccc5)c(=O)c4c3Cl)cn1)CC2` [Example 101, (R)-6-((5-(5-amino-5,7-dihydrospiro[cyclopenta[b]pyridine-6,4′-piperidin]-1′-yl)pyrazin-2-yl)thio)-3-benzyl-5-chloroquinazolin-4(3H)-one], for which, in assay [2], the negative-log IC50 (pIC50) was 7.00 to 8.52.

Regarding `N[C@H]1c2ccccc2CC12CCN(c1cnc(Sc3ccc4ncn(Cc5ccccc5)c(=O)c4c3Cl)cn1)CC2` [Example 100], in assay [2], the negative-log IC50 (pIC50) is 7.00 to 8.52.

Turning to `C[C@@H]1OCC2(CCN(c3cnc(Sc4ccnc(N)c4Cl)c(N)n3)CC2)[C@@H]1N` [TNO155, (3S,4S)-8-(6-amino-5-((2-amino-3-chloropyridin-4-yl)thio)pyrazin-2-yl)-3-methyl-2-oxa-8-azaspiro[4.5]decan-4-amine, reference compound], the pIC50 in assay [1] was more than 7.35.

Consider `C[C@@H]1OCC2(CCN(c3cnc(Sc4ccc5ncn(Cc6ccno6)c(=O)c5c4Cl)cn3)CC2)[C@@H]1N` [Example 57, 6-((5-((3S,4S)-4-amino-3-methyl-2-oxa-8-azaspiro[4.5]decan-8-yl)pyrazin-2-yl)thio)-5-chloro-3-(isoxazol-5-ylmethyl)quinazolin-4(3H)-one], for which, in assay [2], the pIC50 was more than 8.52.

Regarding `COc1ccc2c(c1)[C@@H](N)C1(CCN(c3cnc(Sc4ccc5ncn(CC(C)(C)O)c(=O)c5c4Cl)cn3)CC1)C2` [Example 162, (S)-6-((5-(1-amino-6-methoxy-1,3-dihydrospiro[indene-2,4′-piperidin]-1′-yl)pyrazin-2-yl)thio)-5-chloro-3-(2-hydroxy-2-methylpropyl)quinazolin-4(3H)-one], the pIC50 in assay [2] was more than 8.52.

As to `C[C@@H]1OCC2(CCN(c3cnc(Sc4ccc5ncn(Cc6ccon6)c(=O)c5c4Cl)cn3)CC2)[C@@H]1N` [Example 56, 6-((5-((3S,4S)-4-amino-3-methyl-2-oxa-8-azaspiro[4.5]decan-8-yl)pyrazin-2-yl)thio)-5-chloro-3-(isoxazol-3-ylmethyl)quinazolin-4(3H)-one], the negative-log IC50 (pIC50) in assay [2] was more than 8.52.

Consider `N[C@@H]1c2ccccc2CC12CCN(c1cnc(Sc3ccc4ncn(Cc5ccccc5)c(=O)c4c3Cl)cn1)CC2` [Example 99, (S)-6-((5-(1-amino-1,3-dihydrospiro(indene-2,4′-piperidin]-1′-yl)pyrazin-2-yl)thio)-3-benzyl-5-chloroquinazolin-4(3H)-one], for which the negative-log IC50 (pIC50) in assay [2] was more than 8.52.

In the case of `C[C@@H]1OCC2(CCN(c3cnc(Sc4ccc5ncn(CC6CCCN6)c(=O)c5c4Cl)cn3)CC2)[C@@H]1N` (stereo partly drawn) [Example 54, 6-((5-((3S,4S)-4-amino-3-methyl-2-oxa-8-azaspiro[4.5]decan-8-yl)pyrazin-2-yl)thio)-5-chloro-3-(pyrrolidin-2-ylmethyl)quinazolin-4(3H)-one], the negative logarithm of the IC50 (pIC50) in assay [2] is 7.00 to 8.52.
